Reference: patent US8642647B2, “N1-benzo[1,3]dioxol-5-ylmethyl-N2-substituted biguanide derivative, preparation method thereof, and pharmaceutical composition containing same” (Hanall Biopharma Co., Ltd., priority 2008, dated 2014)
“And” between values parts separate entries of the source, which are not always exact repeats. Identical values can stand only once. Counter-ions that a name gives are not always drawn.

Key:
C2C12 cells = assay: Measurement of glucose absorption ability; format: cell-based; conditions: for Glucose absorption (100 μM) aver.: 100 μM compound with 1 μM insulin, 24 hours, differentiated C2C12 cells, 3H-deoxy-glucose, higher value = stronger, more than 200% counts as glucose absorption ability
Method: (§1) 2 mM metformin was used as a comparative compound for each of the plates (control group).
C2C12 cells (ATCC: American Type Culture Collection), a muscle cell model, were induced to differentiate into muscle cells in 2% bovine fetal serum-containing media (DMEM (Gibco), FBS (Gibco)) for 6 days. The C2C12 cells which differentiated into muscle cells were transferred to serum-free low glucose media (DMEM (Gibco), FBS (Gibco)), treated with 100 μM of each of the compounds, and then cultured with 1 μM of insulin for 24 hours. After cultivation, the cells were treated with 1 μCi ^3H-deoxy-glucose (Amersham Pharmacia) and 10 μM deoxy-glucose (Sigma) at 37° C. for 15 minutes. The media were removed therefrom, and the cells were washed twice with PBS (phosphate buffered saline). The washed cells were treated with 0.1N NaOH and neutralized with 1N HCl. The content of glucose absorbed into the cells was measured with a liquid scintillation counter.
A higher measurement value means a stronger ability to reduce insulin resistance.

HepG2 cells [1] = assay: Measurement of triglyceride synthesis inhibitory ability; format: cell-based; conditions: HepG2 cells; for Triglyceride (100 μM) aver.: 100 μM compound; for Triglyceride (100 μM) aver. / Triglyceride (500 μM) aver.: 24 hours, content of triglyceride formed, lower value = stronger inhibition; for Triglyceride (500 μM) aver.: 500 μM compound
Method: as §1
HepG2 cells (ATCC: American Type Culture Collection) were cultured in 1% serum-containing media (DMEM (Gibco), FBS (Gibco)) for 24 hours, and then treated with 100 μM or 500 μM of each of the compounds prepared in Examples for 24 hours. Then, the cells were disrupted with a lysis solution (0.1 M potassium phosphate, pH 7.4, 0.05 M NaCl, 5 mM cholic acid, 0.1% Triton X-100). To the disrupted cells was added the same volume of a reaction solution (0.76 U/ml of a glycerol kinase (Asan Pharmaceutical Co., Ltd.), […] of a peroxidase (Asan Pharmaceutical Co., Ltd.), 22.2 U/ml of a glycerol oxidizing agent (Asan Pharmaceutical Co., Ltd.), and 300 μM of Amplex red as a fluorescent factor (Molecular Probe)), which was allowed to react at 37° C. for 30 minutes. After completion of the reaction, the content of triglyceride formed in the cell lysates was measured at a wavelength of 560/590 nm (ex/em) using a fluorescence microscope.
A lower measurement value means an increased triglyceride synthesis inhibitory ability.

HepG2 cells [2] = assay: Measurement of gluconeogenesis inhibitory ability; format: cell-based; conditions: for activity at 100 µM: Homo sapiens, HepG2, 24 h, read-out: Gluconeogenesis inhibition (100 μM) aver.; for activity at 100 µM / Gluconeogenesis inhibition (100 μM) aver.: 100 μM compound, 24 hours, content of glucose formed from 14C-lactate, lower value = stronger inhibition
Method: as §1
HepG2 cells (ATCC: American Type Culture Collection) were cultured in 10% serum-containing high glucose media, transferred to no serum-containing low glucose media (DMEM (Gibco), FBS (Gibco)), and then treated with 100 μM of each of the compounds for 24 hours. Then, the cells were treated with 0.5 μCi ^14C-lactate (Amersham Pharmacia) and 10 mM L-lactate (Sigma), and cultured for 4 hours. After cultivation, the media were removed therefrom, and the cells were washed with PBS, treated with 0.1N NaOH and kept at room temperature for 1 hour. Then, the cells were neutralized with 1N HCl, and the content of glucose formed in the cells was measured with a liquid scintillation counter.
A lower measurement value means an increased gluconeogenesis inhibitory ability.

HepG2 cells [3] = assay: Measurement of cholesterol synthesis inhibitory ability; format: cell-based; conditions: HepG2 cells; for Cholesterol (100 μM) aver.: 100 μM compound; for Cholesterol (100 μM) aver. / Cholesterol (500 μM) aver.: 24 hours, content of cholesterol formed, lower value = stronger inhibition; for Cholesterol (500 μM) aver.: 500 μM compound
Method: as §1
A cholesterol synthesis inhibitory ability, which is an important function of AMPK (AMP-activated protein kinase), was measured using HepG2 cells (ATCC: American Type Culture Collection) as a hepatic cell model according to the following procedure.
The hepatic cell model HepG2 cells were cultured in 1% serum-containing media (DMEM (Gibco), FBS (Gibco)) for 24 hours, and then treated with 100 μM or 500 μM of each of the compounds prepared in Examples for 24 hours. Then, the cells were disrupted with a lysis solution (0.1 M potassium phosphate, pH 7.4, 0.05 M NaCl, 5 mM cholic acid, 0.1% Triton X-100 (Sigma)). To the disrupted cells was added the same volume of a reaction solution (2 U/ml of a cholesterol oxidizing agent, 2 U/ml of a peroxidase, 0.2 U/ml of a cholesterol esterase, and 300 μM of Amplex red as a fluorescent factor (Molecular Probe)), which was allowed to react at 37° C. for 30 minutes. After completion of the reaction, the content of cholesterol formed in the cell lysates was measured at a wavelength of 560/590 nm (ex/em) using a fluorescence microscope.
A lower measurement value means an increased cholesterol synthesis inhibitory ability.

[4] = 100 μM compound versus 2 mM metformin
[5] = Metformin 2 mM, one value per plate

Molecule	glucose absorption effect better than that of the control group (C2C12 cells; [4])	Triglyceride (100 μM) aver. (HepG2 cells [1])	Triglyceride (500 μM) aver. (HepG2 cells [1])	activity at 100 µM (HepG2 cells [2]; HepG2 cells) [%]	Cholesterol (100 μM) aver. (HepG2 cells [3])	Cholesterol (500 μM) aver. (HepG2 cells [3])	Glucose absorption (100 μM) aver. (C2C12 cells) [%]	Gluconeogenesis inhibition (100 μM) aver. (HepG2 cells [2]; HepG2 cells)	melting point [°C]	effect in inhibiting gluconeogenesis better than that of the control group (HepG2 cells [2]; [4])	Gluconeogenesis inhibition (100 μM) aver. (HepG2 cells [2]; HepG2 cells, 100 µM)	Glucose absorption aver. (control group) (C2C12 cells; Metformin 2 mM, C2C12 cells, one value per plate)	Triglyceride aver. (control group) (HepG2 cells [1]; [5])	Gluconeogenesis inhibition aver. (control group) (HepG2 cells [2]; Metformin 2 mM, HepG2 cells, one value per plate)	Cholesterol aver. (control group) (HepG2 cells [3]; [5])
Cl.N=C(N)NC(=NCc1ccccc1)NCc1ccc2c(c1)OCO2 [Example 5, N1-benzo[1,3]dioxol-5-ylmethyl-N2-benzyl biguanide hydrochloride]	about 220 times	102.8	15.7	108	30.3	−8.28									
N1-benzo[1,3]dioxol-5-ylmethyl-N2-t-butyl biguanide hydrochloride [Example 4]		89.8	70.1		27.6	11.0	162.5	100.2							
CCc1cc(Cl)ccc1NC(=N)NC(=N)NCc1ccc2c(c1)OCO2.Cl [Example 8, N1-benzo[1,3]dioxol-5-ylmethyl-N2-(2-ethyl-4-chloro)phenyl biguanide hydrochloride]		3.35	19.3		−1.48	28.1	14.21	96.20							
N=C(N)NC(=Nc1cccc2ccccc12)NCc1ccc2c(c1)OCO2 (as salt: hydrochloride) [Example 3, N1-benzo[1,3]dioxol-5-ylmethyl-N2-(1-naphthyl)biguanide hydrochloride]									196.1 to 198.6						
CC(C)(C)CC(C)(C)N=C(NCc1ccc2c(c1)OCO2)NC(=N)N.Cl [Example 9, N1-benzo[1,3]dioxol-5-ylmethyl-N2-t-octyl biguanide hydrochloride]		82.6	−1.23	47.5	37.3	−7.10			141.7 to 155.4	at least 20 times					
Cl.N=C(NCc1ccc2c(c1)OCO2)NC(=N)Nc1ccc(-c2ccccc2)cc1 [Example 35, N1-benzo[1,3]dioxol-5-ylmethyl-N2-(4-biphenyl)biguanide hydrochloride]		18.86	14.13		9.93	23.56	39.19	2.28							
N1-benzo[1,3]dioxol-5-ylmethyl-N2-(1-adamantyl)biguanide hydrochloride (isomer) [Example 28]		89.72	28.87		73.67	30.11	2.20				79.17				
N1-benzo[1,3]dioxol-5-ylmethyl-N2-(1-adamantyl)biguanide hydrochloride (isomer) [Example 29]		101.52	81.39		43.03	67.50	140.2				92.07				
CN(C)C(=N)N=C(N)N [Metformin, metformin, reference compound]												253.20% and 336.45% and 291.63% and 170.94%	74.57 and 69.88 and 73.61 and 70.05	64.50 and 59.11 and 53.09 and 78.33	73.31 and 74.50 and 85.91 and 70.69
CN=C(NCc1ccc2c(c1)OCO2)NC(=N)N.Cl [Example 17, N1-benzo[1,3]dioxol-5-ylmethyl-N2-methyl biguanide hydrochloride]		96.55	53.45	90.2	55.85	12.19			143.9 to 158.1						
